Laboratory results taken from US10538555B2, “Macrocyclic inhibitors of the PD-1/PD-L1 and CD80(B7-1)/PD-L1 protein/protein interactions” (BRISTOL-MYERS SQUIBB COMPANY, priority 2014, dated 2020).
Where a SMILES comes first, the peptide text is derived from it. Bridges are numbered along the chain shown (N, C = ends). [ ]: non-standard residue; d: D form. Phe(3,4,5-F3) = N[C@@H](Cc1cc(F)c(F)c(F)c1)C(=O)O; NMePhe(4-F) = CN[C@@H](Cc1ccc(F)cc1)C(=O)O; d(cisHyp) = O=C(O)[C@H]1C[C@@H](O)CN1; NMeY = CN[C@@H](Cc1ccc(O)cc1)C(=O)O; NMeF = CN[C@@H](Cc1ccccc1)C(=O)O; NMeNle = CCCC[C@H](NC)C(=O)O; dPip = O=C(O)[C@H]1CCCCN1; Orn = NCCC[C@H](N)C(=O)O; Dab = NCC[C@H](N)C(=O)O

Target: T1, Human PD-L1/PD-1 (Homo sapiens, UniProt Q9NZQ7)
T1 construct: TVMV protease cleavage site (C); made in house; host or cells: HEK293T cells
T1 sequence (Q9NZQ7 with tags, fused parts or gaps): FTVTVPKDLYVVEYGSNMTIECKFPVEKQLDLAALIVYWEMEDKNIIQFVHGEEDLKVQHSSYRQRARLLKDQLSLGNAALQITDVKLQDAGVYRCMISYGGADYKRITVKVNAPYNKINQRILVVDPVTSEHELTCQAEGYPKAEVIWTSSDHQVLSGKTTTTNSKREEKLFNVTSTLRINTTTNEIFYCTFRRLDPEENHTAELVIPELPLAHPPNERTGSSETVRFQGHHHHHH
Assay: HTRF Human PD-L1/PD-1 binding assay (PD-1-Ig/PD-L1-His)
Conditions: PD-L1-His 10 nM, PD-1-Ig 20 nM; class symbol; read-out: HTRF Human PD-L1/PD-1 Binding Assay IC50 Range
Outline: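 Soluble HEK293T-expressed proteins: hPD-L1-His 10 nM, hPD-1-Ig 20 nM final. Cpd + PD-L1 15 min, + PD-1 15 min, + Eu anti-Ig 1 nM/APC anti-His 20 nM 30 min. Buffer dPBS, 0.1% BSA, 0.05% Tween-20. TR-FRET 665/620.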

Row | SMILES | IC50 [nM]
1 | CCCC[C@H]1C(=O)N2CCC[C@@H]2C(=O)N[C@@H](CC(=O)O)C(=O)N[C@@H](C(C)C)C(=O)N(C)[C@@H](Cc2ccccc2)C(=O)N[C@@H](CCC(=O)O)C(=O)N2CCCC[C@@H]2C(=O)N[C@H](CCC(=O)O)C(=O)N[C@@H](Cc2ccc(O)cc2)C(=O)N[C@@H](CCCN)C(=O)N[C@H](C(=O)NCC(N)=O)CSCC(=O)N[C@@H](Cc2cc(F)c(F)c(F)c2)C(=O)N(C)[C@@H](Cc2ccc(F)cc2)C(=O)N1C [Example 10608] ({CH2CO}-[Phe(3,4,5-F3)][NMePhe(4-F)][NMeNle][dP]DV[NMeF]E[dPip][dE]Y[Orn]CG-NH2; thioether N-13) | 1000 to 10000
2 | CCCC[C@H]1C(=O)N2CCC[C@@H]2C(=O)N[C@@H](CC(=O)O)C(=O)N[C@@H](C(C)C)C(=O)N(C)[C@@H](Cc2ccccc2)C(=O)N[C@@H](CCN)C(=O)N2CCCC[C@@H]2C(=O)N[C@H](CCC(=O)O)C(=O)N[C@@H](Cc2ccc(O)cc2)C(=O)N[C@@H](CCCN)C(=O)N[C@H](C(=O)NCC(N)=O)CSCC(=O)N[C@@H](Cc2cc(F)c(F)c(F)c2)C(=O)N(C)[C@@H](Cc2ccc(F)cc2)C(=O)N1C [Example 10609] ({CH2CO}-[Phe(3,4,5-F3)][NMePhe(4-F)][NMeNle][dP]DV[NMeF][Dab][dPip][dE]Y[Orn]CG-NH2; thioether N-13) | 100 to 990
3 | CCCC[C@H]1C(=O)N2CCC[C@@H]2C(=O)N[C@@H](CC(=O)O)C(=O)N[C@@H](C(C)C)C(=O)N(C)[C@@H](Cc2ccccc2)C(=O)N[C@@H](Cc2ccc(O)cc2)C(=O)N2CCCC[C@@H]2C(=O)N[C@H](CCC(=O)O)C(=O)N[C@@H](Cc2ccc(O)cc2)C(=O)N[C@@H](CCCN)C(=O)N[C@H](C(=O)NCC(N)=O)CSCC(=O)N[C@@H](Cc2cc(F)c(F)c(F)c2)C(=O)N(C)[C@@H](Cc2ccc(F)cc2)C(=O)N1C [Example 10610] ({CH2CO}-[Phe(3,4,5-F3)][NMePhe(4-F)][NMeNle][dP]DV[NMeF]Y[dPip][dE]Y[Orn]CG-NH2; thioether N-13) | 100 to 990
4 | CC(C)C[C@@H]1NC(=O)[C@H](Cc2ccc(O)cc2)NC(=O)[C@H](Cc2c[nH]c3ccccc23)NC(=O)[C@H]2CCCCN2C(=O)[C@H](CCC(=O)O)NC(=O)[C@H](Cc2ccccc2)N(C)C(=O)[C@H](C(C)C)NC(=O)[C@H](CC(=O)O)NC(=O)[C@H]2CCCN2C(=O)[C@H](Cc2ccc(O)cc2)N(C)C(=O)[C@H](Cc2ccc(F)cc2)N(C)C(=O)[C@H](Cc2cc(F)c(F)c(F)c2)NC(=O)CSC[C@@H](C(=O)NCC(N)=O)NC1=O [Example 10611] ({CH2CO}-[Phe(3,4,5-F3)][NMePhe(4-F)][NMeY][dP]DV[NMeF]E[dPip]WYLCG-NH2; thioether N-13) | 1 to 9.9
5 | CCCC[C@H]1C(=O)N2C[C@H](O)C[C@@H]2C(=O)N[C@@H](CC(=O)O)C(=O)N[C@@H](C(C)C)C(=O)N(C)[C@@H](Cc2ccccc2)C(=O)N[C@@H](CCC(=O)O)C(=O)N2C[C@H](O)C[C@@H]2C(=O)N[C@@H](Cc2c[nH]c3ccccc23)C(=O)N[C@@H](Cc2ccc(O)cc2)C(=O)N[C@@H](CCCN)C(=O)N[C@H](C(=O)NCC(N)=O)CSCC(=O)N[C@@H](Cc2cc(F)c(F)c(F)c2)C(=O)N(C)[C@@H](Cc2ccc(F)cc2)C(=O)N1C [Example 10612] ({CH2CO}-[Phe(3,4,5-F3)][NMePhe(4-F)][NMeNle][d(cisHyp)]DV[NMeF]E[d(cisHyp)]WY[Orn]CG-NH2; thioether N-13) | 1 to 9.9
6 | CCCC[C@H]1C(=O)N2C[C@H](O)C[C@@H]2C(=O)N[C@@H](CC(=O)O)C(=O)N[C@@H](C(C)C)C(=O)N(C)[C@@H](Cc2ccccc2)C(=O)N[C@@H](CCN)C(=O)N2C[C@H](O)C[C@@H]2C(=O)N[C@@H](Cc2c[nH]c3ccccc23)C(=O)N[C@@H](Cc2ccc(O)cc2)C(=O)N[C@@H](CCCN)C(=O)N[C@H](C(=O)NCC(N)=O)CSCC(=O)N[C@@H](Cc2cc(F)c(F)c(F)c2)C(=O)N(C)[C@@H](Cc2ccc(F)cc2)C(=O)N1C [Example 10613] ({CH2CO}-[Phe(3,4,5-F3)][NMePhe(4-F)][NMeNle][d(cisHyp)]DV[NMeF][Dab][d(cisHyp)]WY[Orn]CG-NH2; thioether N-13) | 1 to 9.9
